# Counter-ions that a name gives are not always drawn.
# Key:
# [1] = system: bacterial strains that express the class D cephalosporinase OXA-15; test: Standard BLI potentiation MIC / synergy MIC assays, strains expressing OXA-15; format: cell-based, E. coli; conditions: in combination with a β-lactam; comparator Avibactam (CCC)
# Method in brief: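 Broth microdilution in cation-adjusted Mueller Hinton broth per CLSI M07-A9, ~10^5 CFU/mL, 18-20 h at 37 °C with aeration; engineered E. coli carrying β-lactamase plasmids kept on 25 μg/mL tetracycline. β-lactam MIC measured in 2-fold dilutions (128-0.13 μg/mL) with BLI fixed at 4 μg/mL; sMIC titrates BLI against a fixed β-lactam concentration. MIC = lowest concentration without visible turbidity.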
# [2] = system: bacterial strains that express KPC β-lactamases; test: Standard BLI potentiation MIC / synergy MIC assays, strains expressing KPC β-lactamases; format: cell-based; conditions: in combination with a β-lactam; comparator Avibactam
# Protocol: The experimental protocol was performed according to Clinical and Laboratory Standards Institute (CLSI) guidelines with modifications as described below (CLSI guidelines can be derived from the CLSI document M07-A9 published in January 2012: “Methods for Dilution Antimicrobial Susceptibility Tests for Bacteria That Grow Aerobically; Approved Standard-Ninth Edition”).
# To prepare for MIC testing, frozen glycerol stocks of clinical isolates (Klebsiella pneumoniae, Eschericia coli, Enterobacter spp, Citrobacter spp, or Pseudomonas aeruginosa) were used to streak for isolated colonies on rich, non-selective, tryptic soy agar containing 5% sheep's blood (TSAB). Frozen glycerol stocks of laboratory engineered, isogenic E. coli strains, which contain cloned β-lactamase expressing plasmids were used to streak for isolated colonies on rich, selective LB agar supplemented with 25 μg/mL tetracycline to maintain the plasmid. All strains were incubated at 37° C. for 18-24 hrs.
# On the day of testing, primary cultures were started by scraping off 5-10 colonies from the TSAB plates containing clinical strains or the tetracycline supplemented LB plates containing engineered strains. The clinical strain material was suspended in ˜5 mL of cation adjusted Mueller Hinton Broth (CAMHB) in 14 mL culture tubes. The engineered strain material was suspended in CAMHB (supplemented with 25 μg/mL tetracycline) in 14 mL culture tubes. All strains were incubated at 37° C. with aeration (200 rpm) for ˜2 hrs until the optical density at 600 nm (OD600) was >0.1.
# The two compound components of the assay were each diluted in CAMHB and added to the 96-well broth microdilution assay plates. 50 μL of the β-lactam was added to each well of the assay plate in 2-fold dilutions with final concentrations ranging from 128 to 0.13 μg/mL. 25 μL of the BLI compound was added to all wells in the broth microdilution plates at a final concentration of 4 μg/mL. Inoculum cultures were prepared by standardizing the primary cultures to OD600=0.1 and then adding 20 μL of the adjusted primary culture per 1 mL CAMHB for clinical strains or CAMHB (supplemented with tetracycline at 100 μg/mL) for engineered strains, so that the final inoculum density was ˜10^5 colony forming units per milliliter. Diluted inoculum cultures were used to inoculate 25 μl, per well in 96-well broth microdilution assay plates. The final volume of each well was 100 μL and contained a β-lactam at different concentrations, a BLlcompound at 4 μg/mL concentration, the bacterial culture at an OD600 of approximately 0.001 and when necessary tetracycline at 25 μg/mL.
# Plates were incubated for 18-20 hours at 37° C. with aeration (200 rpm). Following incubation, growth was confirmed visually placing plates over a viewing apparatus (stand with a mirror underneath) and then OD600 was measured using a SpectraMax 340PC384 plate reader (Molecular Devices, Sunnyvale, Calif.). Growth was defined as turbidity that could be detected with the naked eye or achieving minimum OD600 of 0.1. MIC values were defined as the lowest concentration producing no visible turbidity.
# The synergy MIC (sMIC) assay determines the concentration of the BLI required to potentiate the activity of a fixed concentration of a β-lactam antibiotic against β-lactamase producing bacterial strains. The experimental protocol was performed according to Clinical and Laboratory Standards Institute (CLSI) guidelines with modifications as described below (CLSI guidelines can be derived from the CLSI document M07-A9 published in January 2012: “Methods for Dilution Antimicrobial Susceptibility Tests for Bacteria That Grow Aerobically; Approved Standard-Ninth Edition”). […]
SMILES,"activity against bacterial strains that express the class D cephalosporinase OXA-15, compared with Avibactam [1]","activity and/or spectrum of activity against bacterial strains that express KPC β-lactamases, compared with Avibactam [2]"
"NCCCCc1nnc([C@@H]2CC[C@@H]3CN2C(=O)N3OS(=O)(=O)O)o1 [Compound 735, (2S,5R)-2-(5-(4-aminobutyl)-1,3,4-oxadiazol-2-yl)-7-oxo-1,6-diazabicyclo[3.2.1]octan-6-yl hydrogen sulfate]",more active than Avibactam,"more active than Avibactam for at least one, bacterial strain that expresses KPC β-lactamase and/or show a better spectrum of activity"
"CNCCCc1nnc([C@@H]2CC[C@@H]3CN2C(=O)N3OS(=O)(=O)O)o1 [Compound 734, (2S,5R)-2-(5-β-(methylamino)propyl)-1,3,4-oxadiazol-2-yl)-7-oxo-1,6-diazabicyclo[3.2.1]octan-6-yl hydrogen sulfate]",more active than Avibactam,"more active than Avibactam for at least one, bacterial strain that expresses KPC β-lactamase and/or show a better spectrum of activity"
"O=C1N2C[C@@H](CC[C@H]2c2nnc(C3CCNCC3)o2)N1OS(=O)(=O)O [Compound 711, (2S,5R)-7-oxo-2-(5-(piperidin-4-yl)-1,3,4-oxadiazol-2-yl)-1,6-diazabicyclo[3.2.1]octan-6-yl hydrogen sulfate]",more active than Avibactam,"more active than Avibactam for at least one, bacterial strain that expresses KPC β-lactamase and/or show a better spectrum of activity"
"N[C@H]1C[C@@H](c2nnc([C@@H]3CC[C@@H]4CN3C(=O)N4OS(=O)(=O)O)s2)C1 [Compound 795, (2S,5R)-2-(5-((1s,3R)-3-aminocyclobutyl)-1,3,4-thiadiazol-2-yl)-7-oxo-1,6-diazabicyclo[3.2.1]octan-6-yl hydrogen sulfate]",more active than Avibactam,"more active than Avibactam for at least one, bacterial strain that expresses KPC β-lactamase and/or show a better spectrum of activity"
"NC1(Cc2nnc([C@@H]3CC[C@@H]4CN3C(=O)N4OS(=O)(=O)O)o2)CC1 [Compound 724, (2S,5R)-2-(5-((1-aminocyclopropyl)methyl)-1,3,4-oxadiazol-2-yl)-7-oxo-1,6-diazabicyclo[3.2.1]octan-6-yl hydrogen sulfate]",more active than Avibactam,"more active than Avibactam for at least one, bacterial strain that expresses KPC β-lactamase and/or show a better spectrum of activity"
"O=C1N2C[C@@H](CC[C@H]2c2nnc(C3CNC3)o2)N1OS(=O)(=O)O [Compound 708, (2S,5R)-2-(5-(azetidin-3-yl)-1,3,4-oxadiazol-2-yl)-7-oxo-1,6-diazabicyclo[3.2.1]octan-6-yl hydrogen sulfate]",more active than Avibactam,"more active than Avibactam for at least one, bacterial strain that expresses KPC β-lactamase and/or show a better spectrum of activity"
"CC(C)(N)Cc1nnc([C@@H]2CC[C@@H]3CN2C(=O)N3OS(=O)(=O)O)o1 [Compound 737, (2S,5R)-2-(5-(2-amino-2-methylpropyl)-1,3,4-oxadiazol-2-yl)-7-oxo-1,6-diazabicyclo[3.2.1]octan-6-yl hydrogen sulfate]",more active than Avibactam,"more active than Avibactam for at least one, bacterial strain that expresses KPC β-lactamase and/or show a better spectrum of activity"
"N=C(N)NCc1nnc([C@@H]2CC[C@@H]3CN2C(=O)N3OS(=O)(=O)O)s1 [Compound 721, (2S,5R)-2-(5-(guanidinomethyl)-1,3,4-thiadiazol-2-yl)-7-oxo-1,6-diazabicyclo[3.2.1]octan-6-yl hydrogen sulfate]",more active than Avibactam,"more active than Avibactam for at least one, bacterial strain that expresses KPC β-lactamase and/or show a better spectrum of activity"
"N=C(N)NCC(O)Cc1nnc([C@@H]2CC[C@@H]3CN2C(=O)N3OS(=O)(=O)O)o1 (stereo partly drawn) [Compound 730, (2S,5R)-2-(5-(3-guanidino-2-hydroxypropyl)-1,3,4-oxadiazol-2-yl)-7-oxo-1,6-diazabicyclo[3.2.1]octan-6-yl hydrogen sulfate]",more active than Avibactam,"more active than Avibactam for at least one, bacterial strain that expresses KPC β-lactamase and/or show a better spectrum of activity"
"N=C(N)NC1(Cc2nnc([C@@H]3CC[C@@H]4CN3C(=O)N4OS(=O)(=O)O)o2)CC1 [Compound 739, (2S,5R)-2-(5-((1-guanidinocyclopropyl)methyl)-1,3,4-oxadiazol-2-yl)-7-oxo-1,6-diazabicyclo[3.2.1]octan-6-yl hydrogen sulfate]",more active than Avibactam,"more active than Avibactam for at least one, bacterial strain that expresses KPC β-lactamase and/or show a better spectrum of activity"
"O=C1N2C[C@@H](CC[C@H]2c2nnc(CN[C@H]3CCNC3)o2)N1OS(=O)(=O)O [Compound 765, (2S,5R)-7-oxo-2-(5-(((S)-pyrrolidin-3-ylamino)methyl)-1,3,4-oxadiazol-2-yl)-1,6-diazabicyclo[3.2.1]octan-6-yl hydrogen sulfate]",more active than Avibactam,"more active than Avibactam for at least one, bacterial strain that expresses KPC β-lactamase and/or show a better spectrum of activity"
"O=C1N2C[C@@H](CC[C@H]2c2nnc(CCCC3CNC3)o2)N1OS(=O)(=O)O [Compound 743, (2S,5R)-2-(5-(3-(azetidin-3-yl)propyl)-1,3,4-oxadiazol-2-yl)-7-oxo-1,6-diazabicyclo[3.2.1]octan-6-yl hydrogen sulfate]",more active than Avibactam,"more active than Avibactam for at least one, bacterial strain that expresses KPC β-lactamase and/or show a better spectrum of activity"
"O=C1N2C[C@@H](CC[C@H]2c2nnc([C@H]3[C@@H]4CNC[C@@H]43)o2)N1OS(=O)(=O)O [Compound 740, (2S,5R)-2-(5-(3-azabicyclo[3.1.0]hexan-6-yl)-1,3,4-oxadiazol-2-yl)-7-oxo-1,6-diazabicyclo[3.2.1]octan-6-yl hydrogen sulfate]",more active than Avibactam,"more active than Avibactam for at least one, bacterial strain that expresses KPC β-lactamase and/or show a better spectrum of activity"

# — patent US8962843B2, “1,3,4-oxadiazole and 1,3,4-thiadiazole beta-lactamase inhibitors” (priority 2012, dated 2015)
